Entries after “also recorded” stand apart in the source; their conditions may differ. Like-named read-outs stand apart in the source and are kept apart here.
Legend:
Assay type in all cases: cell-based, human
[1] = tested on: HepG2 cells; assay: measurement of glucose production in cell culture; set-up: glucose production: dose or concentration left out as unconfirmed
Experimental: Rosiglitazone and GW9662 were from Sigma. HepG2 and Huh7 cells were seeded in 6-well tissue culture plates at 5×10, Quasdorff, M. et al. Journal of viral hepatitis 17, 527-536 (2010) cells/well. At 24 h post-transfection, Rosiglitazone or GW9662 in 0.1% DMSO was added to medium. Culture medium was changed ever two days before harvest.
The glucose level of HBV transgenic mice was measured using a kit of DRI-CHEM SLIDE GLU-PIII (FUJIFILM, JAPAN). Ten microliters of mouse serum was deposited on a FUJI DRI-CHEM SLIDE GLU-PIII. Glucose oxidase (GOD) catalyzes the oxidization of sample glucose to generate hydrogen peroxide which then reacts with dye precursors and forms red dye. The optical reflection density was measured at 505 nm by the FUJI DRI-CHEM analyzer and converted into the glucose concentration […]. For the measurement of glucose concentration in cell culture, HBV producing cells (HepG2 and Q7 cells) were treated with PPARγ antagonist, GW9662 at indicated concentrations. Twenty-four hours before glucose measurement, the medium was replaced with 1 ml of glucose-free DMEM, supplemented with 2 mM sodium pyruvate. After 16 hrs incubation, 50 μl of medium was collected and the glucose concentration (mM) was measured using the glucose colorimetric assay (Biovision).

[2] = tested on: miR-130a; assay: miR-130a expression in PPARγ-expressing HepG2 cell lines (stem-loop qPCR); settings: stable PPARγ-expressing HepG2 cell lines, U6 snRNA internal control
Experimental: Rosiglitazone and GW9662 were from Sigma. […] At 24 h post-transfection, Rosiglitazone or GW9662 in 0.1% DMSO was added to medium. Culture medium was changed ever two days before harvest.
Briefly, 100 ng RNAs were reverse transcribed by specific stem-loop primer and further analyzed by Taqman real-time PCR assay using default setting. […] Data were analyzed by Applied Biosystems 7500 software V2.0.1.

[3] = tested on: 3′ UTR of PGC1α; assay: compensatory mutagenesis luciferase cotransfection assay, PGC1α 3′UTR
Experimental: (§1) Assay for 3′ UTR or enhancer/promoter was as described previously. Chen, H. L., et al., PloS one 7, e34116 (2012).
To distinguish between a direct and an indirect mechanism of miR-130a on reducing PGC1α mRNA, a reporter assay was performed using 3′UTR from either PPARγ or PGC1α. […] Next, compensatory mutations were introduced into the seed sequences of miR-130a and its evolutionarily conserved target site of PGC1α (FIG. 10). […] In a dose-dependent manner, miR-130a could reduce, while LNA-miR-130a could increase, the luciferase activity of a reporter containing the 3′UTR of PGC1α (FIG. 11).

[4] = tested on: PKLR mRNA; assay: PKLR mRNA in stable miR-130a expressing cells (RT-qPCR)
Experimental: (§2) Briefly, 2 μg of total RNA was reverse transcribed into cDNA using random primers and High Capacity cDNA Reverse Transcription kit (Applied Biosystem) at 37° C. for 120 minutes. The cDNA product was then diluted 100 times for real-time PCR analysis using Power SYBR Green PCR master mix (Applied Biosystem), and the default condition in a 20 μl reaction volume by Applied Biosystems 7500 Real-Time PCR System. Data were analyzed by relative quantification methods (AACt methods) using 7500 software V2.0.1.
(§3) Approximately one million Huh7 and HepG2 cells were transiently transfected by 3 μg plasmid DNA (pSuper and pSuper-miR-130a) with Polyjet (SignaGen), followed by G418 selection for three weeks. The G418-resistant colonies were pooled together.

[5] = tested on: PEPCK mRNA; assay: PEPCK mRNA in stable miR-130a expressing HepG2 cells (Northern blot)
Experimental: (§4) HBV core particle-associated DNA, total cellular cytoplasmic RNA, and microRNA were analyzed by Northern blot as described previously. Chua, P. K., et al. Journal of virology 84, 2340-2351 (2010), Le Pogam, S., et al., Journal of virology 79, 1871-1887 (2005).
as §3

[6] = tested on: G6Pase mRNA; assay: G6Pase mRNA in stable miR-130a expressing HepG2 cells (Northern blot)
Experimental: as §4, §3

[7] = tested on: G6Pase; assay: G6Pase protein in miR-130a expressing hepatocytes (Western blot)
Source text: (§5) Anti-HBc (Dako), anti-PPARγ (Santa Cruz), anti-GAPDH, anti-PKLR, anti-G6Pase, anti-tubulin, anti-adiponectin (GeneTex, Taiwan), anti-PGC1α (Origene), anti-PCK1 (Abnova), anti-GCK (Biovision), Secondary antibodies include mouse anti-rabbit-HRP, goat anti-mouse-HRP (GeneTex, Taiwan) and donkey anti-goat-HRP (Santa Cruz).
(§6) Native agarose gel electrophoresis and Western blot for detecting HBV core particles were as described. Chua, P. K., et al. Journal of virology 84, 2340-2351 (2010),
as §3

[8] = tested on: glucokinase (GCK); assay: glucokinase (GCK) protein in stable miR-130a expressing HepG2 cells (Western blot)
Source text: as §5, §6, §3

[9] = tested on: pyruvate kinase (PKLR); assay: pyruvate kinase (PKLR) protein in stable miR-130a expressing cells (Western blot); settings: stable miR-130a expressing Huh? cells
Source text: as §5, §6, §3

[10] = tested on: GCK mRNA; assay: GCK mRNA in stable miR-130a expressing cells (RT-qPCR)
Experimental: as §2, §3

[11] = tested on: CEBPb; assay: CEBPb protein in stable miR-130a expressing HepG2 cell lines (Western blot)
Experimental: as §6, §3

[12] = tested on: 3′ UTR of PPARγ (NM_005037); assay: luciferase reporter cotransfection assay, 3′ UTR of PPARγ
Source text: as §1

[13] = tested on: PPARγ; assay: PPARγ protein in stable miR-130a expressing cells (Western blot)
Source text: as §5, §6, §3

[14] = tested on: adiponectin; assay: adiponectin protein in stable miR-130a expressing cells (Western blot)
Source text: as §5, §6, §3

[15] = tested on: PGC1α mRNA; assay: PGC1α mRNA in stable miR-130a expressing cell lines (Northern blot, RT-qPCR); settings: stable miR-130a expressing HepG2 cell lines
Experimental: as §2, §4, §3

[16] = tested on: adiponectin; assay: secreted adiponectin ELISA, miR-130a expressing cell lines
Experimental: The concentration of secreted adiponectin was measured by ELISA (Biovision). ELISA of HBsAg and HBeAg was from General Biologicals Co., Taiwan.
as §3

[17] = tested on: PPARα; assay: PPARα protein in stable miR-130a expressing HepG2 cell lines (Western blot)
Experimental: as §6, §3

[18] = tested on: HNF4; assay: HNF4 protein in stable miR-130a expressing HepG2 cell lines (Western blot)
Experimental: as §6, §3

[19] = tested on: SP1; assay: SP1 protein in stable miR-130a expressing HepG2 cell lines (Western blot)
Experimental: as §6, §3

[20] = tested on: PGC1α; assay: PGC1α protein in stable miR-130a expressing cells (Western blot)
Source text: as §5, §6, §3

[21] = tested on: 3′ UTR of PGC1α (NM_013261); assay: luciferase reporter cotransfection assay, 3′ UTR of PGC1α; settings: for luciferase activity, reporter with 3′ UTR of PGC1α: reporter cotransfection assay
Source text: as §1

[22] = tested on: PEPCK; assay: PEPCK protein in miR-130a expressing hepatocytes (Western blot)
Source text: as §5, §6, §3

[23] = tested on: PPARγ mRNA; assay: PPARγ mRNA in stable miR-130a expressing cell lines (Northern blot, RT-qPCR); settings: stable miR-130a expressing HepG2 cell lines
Experimental: as §2, §4, §3

O=C(Nc1ccccc1)c1cc([N+](=O)[O-])ccc1Cl [GW9662]
glucose production ([1]; HepG2 cells, irrespective of HBV-producing status): further increased; also recorded: increase
expression of miR-130a [2]: not

mutant miR-130a: miR-130a with compensatory mutations in the seed sequence, SEQ ID NO: 69 (CUGAGCAAUGUUAAAAGGGCAU; listed as RNA, chemistry not given here) [reference compound]
luciferase activity, mutant PGC1α 3′UTR target site ([3]; combination of mutant miR-130a and mutant PGC1α, cotransfection): restore the inhibitory effect

miR-130a: human microRNA comprising CAGUGCAAUGUUAAAAGGGCAU (SEQ ID NO:1); expressed from pSuper-miR-130a in stable cell lines
PKLR specific mRNA level [4]: increased
PEPCK mRNA expression [5]: reductions; also recorded: reduced
G6Pase mRNA expression [6]: reductions; also recorded: reduced
G6Pase protein expression [7]: reductions; also recorded: Reduced
glucokinase (GCK) protein level [8]: not reduced but increased; also recorded: increased level
direct targeting of 3′ UTR of PGC1α by compensatory mutagenesis ([3]; p<0.05): directly target
pyruvate kinase (PKLR) protein level [9]: not reduced but increased; also recorded: increased level
GCK specific mRNA level [10]: increased
protein level of CEBPb [11]: No appreciable difference
luciferase activity, reporter with 3′ UTR of PPARγ [12]: functional interaction
luciferase activity, reporter with 3′ UTR of PPARγ ([12]; listed as MiR-130a): significantly reduced
glucose level ([1]; control vs miR-130a producing cells): No significant difference
PPARγ protein [13]: reduction
adiponectin protein [14]: reduction
PGC1α mRNA [15]: reduction
secreted adiponectin [16]: significantly reduced; also recorded: reduction
protein level of PPARα [17]: No appreciable difference
protein level of HNF4 [18]: No appreciable difference
protein level of SP1 [19]: No appreciable difference
PGC1α protein [20]: reduction
PGC1α 3′UTR luciferase reporter activity with increasing amounts ([21]; dose response, co-transfection): reduce; also recorded: decreasing reporter activity in a dose response manner
luciferase activity, reporter with 3′ UTR of PGC1α [21]: functional interaction
luciferase activity, reporter with 3′ UTR of PGC1α ([21]; listed as MiR-130a): significantly reduced
PEPCK protein expression [22]: reductions; also recorded: Reduced
PPARγ mRNA [23]: reduction

From patent US20160244755A1, “TREATING DISEASES ASSOCIATED WITH PGC1-ALPHA BY MODULATING MICRORNAS MIR-130A AND MIR-130B” (ACADEMIA SINICA;, priority 2013, published 2016)
